# Assay results: US11337976B2 (Plexxikon Inc., priority 2011, dated 2022)
# System: A375 melanoma cells (B-Raf V600E mutation)
# Experiment: A375 (A375_P-ERK) cell activity / cell growth inhibition assay
# Format: cell-based, human
# Settings: Homo sapiens, A-375; A375 cells (text: A375_P-ERK)
row,Structure (SMILES),IC50 [µM]
1,"CCCNS(=O)(=O)Nc1cccc(C(=O)c2c[nH]c3ncc(-c4cnn(C)c4)cc23)c1F [P-0242, [2-fluoro-3-(propylsulfamoylamino)phenyl]-[5-(1-methylpyrazol-4-yl)-1H-pyrrolo[2,3-b]pyridin-3-yl]methanone]",> 1
2,"O=C(c1cccc(NS(=O)(=O)N2CCCC2)c1F)c1c[nH]c2ncc(-c3ccc(C4(C(=O)O)CC4)cc3)cc12 [P-0243, 1-[4-[3-[2-fluoro-3-(pyrrolidin-1-ylsulfonylamino)benzoyl]-1H-pyrrolo[2,3-b]pyridin-5-yl]phenyl]cyclopropanecarboxylic acid]",> 1
3,"CCCNS(=O)(=O)Nc1cccc(C(=O)c2c[nH]c3ncc(-c4cnc(C5CC5)nc4)cc23)c1F [P-0251, [5-(2-cyclopropylpyrimidin-5-yl)-1H-pyrrolo[2,3-b]pyridin-3-yl]-[2-fluoro-3-(propylsulfamoylamino)phenyl]methanone]",> 1
4,"NC(=O)C1(c2ccc(-c3cnc4[nH]cc(C(=O)c5cccc(NS(=O)(=O)N6CCCC6)c5F)c4c3)cc2)CC1 [P-0253, 1-[4-[3-[2-fluoro-3-(pyrrolidin-1-ylsulfonylamino)benzoyl]-1H-pyrrolo[2,3-b]pyridin-5-yl]phenyl]cyclopropanecarboxamide]",> 1
5,"CCN(C)S(=O)(=O)Nc1ccc(F)c(C(=O)c2c[nH]c3ncc(-c4cnc(N5CCOCC5)nc4)cc23)c1F [P-0258, 4-[5-[3-[3-[[ethyl(methyl)sulfamoyl]amino]-2,6-difluoro-benzoyl]-1H-pyrrolo[2,3-b]pyridin-5-yl]pyrimidin-2-yl]morpholine]",< 1
6,"CCN(C)S(=O)(=O)Nc1ccc(F)c(C(=O)c2c[nH]c3ncc(-c4cccc(N5CCOCC5)c4)cc23)c1F [P-0259, 4-[3-[3-[3-[[ethyl(methyl)sulfamoyl]amino]-2,6-difluoro-benzoyl]-1H-pyrrolo[2,3-b]pyridin-5-yl]phenyl]morpholine]",< 1
7,"CN1CCN(c2ncc(-c3cnc4[nH]cc(C(=O)c5c(F)ccc(NS(=O)(=O)N6CCCC6)c5F)c4c3)cn2)CC1 [P-0260, N-[2,4-difluoro-3-[5-[2-(4-methylpiperazin-1-yl)pyrimidin-5-yl]-1H-pyrrolo[2,3-b]pyridine-3-carbonyl]phenyl]pyrrolidine-1-sulfonamide]",< 1
8,"O=C(c1c(F)ccc(NS(=O)(=O)N2CCCC2)c1F)c1c[nH]c2ncc(-c3cnc(N4CCNCC4)nc3)cc12 [P-0261, N-[2,4-difluoro-3-[5-(2-piperazin-1-ylpyrimidin-5-yl)-1H-pyrrolo[2,3-b]pyridine-3-carbonyl]phenyl]pyrrolidine-1-sulfonamide]",< 1
9,"O=C(c1c(F)ccc(NS(=O)(=O)N2CCCC2)c1F)c1c[nH]c2ncc(-c3cnc(N4CCC(O)CC4)nc3)cc12 [P-0262, N-[2,4-difluoro-3-[5-[2-(4-hydroxy-1-piperidyl)pyrimidin-5-yl]-1H-pyrrolo[2,3-b]pyridine-3-carbonyl]phenyl]pyrrolidine-1-sulfonamide]",< 1
10,"CCN(C)S(=O)(=O)Nc1ccc(F)c(C(=O)c2c[nH]c3ncc(-c4cnc(N5CCN(C)CC5)nc4)cc23)c1F [P-0263, 3-[3-[[ethyl(methyl)sulfamoyl]amino]-2,6-difluoro-benzoyl]-5-[2-(4-methylpiperazin-1-yl)pyrimidin-5-yl]-1H-pyrrolo[2,3-b]pyridine]",< 1
11,"CC(C)(O)c1nc(-c2cnc3[nH]cc(C(=O)c4c(F)ccc(NS(=O)(=O)N5CCCC5)c4F)c3c2)cs1 [P-0265, N-[2,4-difluoro-3-[5-[2-(1-hydroxy-1-methyl-ethyl)thiazol-4-yl]-1H-pyrrolo[2,3-b]pyridine-3-carbonyl]phenyl]pyrrolidine-1-sulfonamide]",< 1
12,"CCN(C)S(=O)(=O)Nc1ccc(F)c(C(=O)c2c[nH]c3ncc(-c4cnc(N5CCNCC5)nc4)cc23)c1F [P-0268, 3-[3-[[ethyl(methyl)sulfamoyl]amino]-2,6-difluoro-benzoyl]-5-(2-piperazin-1-ylpyrimidin-5-yl)-1H-pyrrolo[2,3-b]pyridine]",< 1
13,"O=C(c1c(F)ccc(NS(=O)(=O)N2CCCC2)c1F)c1c[nH]c2ncc(-c3cnc(N4CCC4)nc3)cc12 [P-0269, N-[3-[5-[2-(azetidin-1-yl)pyrimidin-5-yl]-1H-pyrrolo[2,3-b]pyridine-3-carbonyl]-2,4-difluoro-phenyl]pyrrolidine-1-sulfonamide]",< 1
14,"C[C@@H]1CCN(S(=O)(=O)Nc2cccc(C(=O)c3c[nH]c4ncc(-c5cnc(C6CC6)nc5)cc34)c2F)C1 [P-0271, (3R)—N-[3-[5-(2-cyclopropylpyrimidin-5-yl)-1H-pyrrolo[2,3-b]pyridine-3-carbonyl]-2-fluoro-phenyl]-3-methyl-pyrrolidine-1-sulfonamide]",< 1

# Results, then the molecule that gave them:
row,IC50 [µM],Structure (SMILES)
1,< 1,"CCC(C)S(=O)(=O)Nc1cccc(C(=O)c2c[nH]c3ncc(-c4ccc(C5(C#N)CC5)cc4)cc23)c1F (stereo not shown) [P-0227, N-[3-[5-[4-(1-cyanocyclopropyl)phenyl]-1H-pyrrolo[2,3-b]pyridine-3-carbonyl]-2-fluoro-phenyl]butane-2-sulfonamide]"
2,< 1,"CCC(C)S(=O)(=O)Nc1cccc(C(=O)c2c[nH]c3ncc(-c4cnc(C5CC5)nc4)cc23)c1F (stereo not shown) [P-0228, N-[3-[5-(2-cyclopropylpyrimidin-5-yl)-1H-pyrrolo[2,3-b]pyridine-3-carbonyl]-2-fluoro-phenyl]butane-2-sulfonamide]"
3,< 1,"CCC(C)S(=O)(=O)Nc1cccc(C(=O)c2c[nH]c3ncc(-c4cnc(C(C)C)nc4)cc23)c1F (stereo not shown) [P-0229, N-[2-fluoro-3-[5-(2-isopropylpyrimidin-5-yl)-1H-pyrrolo[2,3-b]pyridine-3-carbonyl]phenyl]butane-2-sulfonamide]"
4,< 1,"CCC(C)S(=O)(=O)Nc1cccc(C(=O)c2c[nH]c3ncc(-c4ccc(N(C)C)nc4)cc23)c1F (stereo not shown) [P-0230, N-[3-[5-[6-(dimethylamino)-3-pyridyl]-1H-pyrrolo[2,3-b]pyridine-3-carbonyl]-2-fluoro-phenyl]butane-2-sulfonamide]"
5,< 1,"CCC(C)S(=O)(=O)Nc1cccc(C(=O)c2c[nH]c3ncc(-c4cnc(C)nc4)cc23)c1F (stereo not shown) [P-0231, N-[2-fluoro-3-[5-(2-methylpyrimidin-5-yl)-1H-pyrrolo[2,3-b]pyridine-3-carbonyl]phenyl]butane-2-sulfonamide]"
6,< 1,"O=C(c1cccc(NS(=O)(=O)N2CCCC2)c1F)c1c[nH]c2ncc(-c3cnc(N4CCOCC4)nc3)cc12 [P-0235, N-[2-fluoro-3-[5-(2-morpholinopyrimidin-5-yl)-1H-pyrrolo[2,3-b]pyridine-3-carbonyl]phenyl]pyrrolidine-1-sulfonamide]"
7,< 1,"CCC(C)S(=O)(=O)Nc1cccc(C(=O)c2c[nH]c3ncc(-c4cnc(N5CCOCC5)nc4)cc23)c1F (stereo not shown) [P-0236, N-[2-fluoro-3-[5-(2-morpholinopyrimidin-5-yl)-1H-pyrrolo[2,3-b]pyridine-3-carbonyl]phenyl]butane-2-sulfonamide]"
8,< 1,"CN(C)S(=O)(=O)Nc1ccc(F)c(C(=O)c2c[nH]c3ncc(-c4ccc(C5(C#N)CC5)cc4)cc23)c1F [P-0237, 5-[4-(1-cyanocyclopropyl)phenyl]-3-[3-(dimethylsulfamoylamino)-2,6-difluoro-benzoyl]-1H-pyrrolo[2,3-b]pyridine]"
9,< 1,"CN(C)S(=O)(=O)Nc1ccc(F)c(C(=O)c2c[nH]c3ncc(-c4cnc(C5CC5)nc4)cc23)c1F [P-0238, 5-(2-cyclopropylpyrimidin-5-yl)-3-[3-(dimethylsulfamoylamino)-2,6-difluoro-benzoyl]-1H-pyrrolo[2,3-b]pyridine]"
10,< 1,"CCN(C)S(=O)(=O)Nc1ccc(F)c(C(=O)c2c[nH]c3ncc(-c4ccc(C5(C#N)CC5)cc4)cc23)c1F [P-0239, 5-[4-(1-cyanocyclopropyl)phenyl]-3-[3-[[ethyl(methyl)sulfamoyl]amino]-2,6-difluoro-benzoyl]-1H-pyrrolo[2,3-b]pyridine]"
11,< 1,"CCN(C)S(=O)(=O)Nc1ccc(F)c(C(=O)c2c[nH]c3ncc(-c4cnc(C5CC5)nc4)cc23)c1F [P-0240, 5-(2-cyclopropylpyrimidin-5-yl)-3-[3-[[ethyl(methyl)sulfamoyl]amino]-2,6-difluoro-benzoyl]-1H-pyrrolo[2,3-b]pyridine]"
12,< 1,"O=C(c1c(F)ccc(NS(=O)(=O)N2CCCC2)c1F)c1c[nH]c2ncc(-c3cnc(C4CC4)nc3)cc12 [P-0241, N-[3-[5-(2-cyclopropylpyrimidin-5-yl)-1H-pyrrolo[2,3-b]pyridine-3-carbonyl]-2,4-difluoro-phenyl]pyrrolidine-1-sulfonamide]"
13,< 1,"CC1CCN(S(=O)(=O)Nc2cccc(C(=O)c3c[nH]c4ncc(-c5cnc(C6CC6)nc5)cc34)c2F)C1 (stereo not shown) [P-0247, N-[3-[5-(2-cyclopropylpyrimidin-5-yl)-1H-pyrrolo[2,3-b]pyridine-3-carbonyl]-2-fluoro-phenyl]-3-methyl-pyrrolidine-1-sulfonamide]"
14,< 1,"N#CC1(c2ccc(-c3cnc4[nH]cc(C(=O)c5c(F)ccc(NS(=O)(=O)N6CCCC6)c5F)c4c3)cc2)CC1 [P-0248, N-[3-[5-[4-(1-cyanocyclopropyl)phenyl]-1H-pyrrolo[2,3-b]pyridine-3-carbonyl]-2,4-difluoro-phenyl]pyrrolidine-1-sulfonamide]"
15,< 1,"CN(C1CC1)S(=O)(=O)Nc1cccc(C(=O)c2c[nH]c3ncc(-c4cnc(C5CC5)nc4)cc23)c1F [P-0249, 3-[3-[[cyclopropyl(methyl)sulfamoyl]amino]-2-fluoro-benzoyl]-5-(2-cyclopropylpyrimidin-5-yl)-1H-pyrrolo[2,3-b]pyridine]"
16,< 1,"CN(C1CC1)S(=O)(=O)Nc1ccc(F)c(C(=O)c2c[nH]c3ncc(-c4cnc(C5CC5)nc4)cc23)c1F [P-0252, 3-[3-[[cyclopropyl(methyl)sulfamoyl]amino]-2,6-difluoro-benzoyl]-5-(2-cyclopropylpyrimidin-5-yl)-1H-pyrrolo[2,3-b]pyridine]"
17,< 1,"CCOc1ncc(-c2cnc3[nH]cc(C(=O)c4c(F)ccc(NS(=O)(=O)N(C)CC)c4F)c3c2)cn1 [P-0256, 5-(2-ethoxypyrimidin-5-yl)-3-[3-[[ethyl(methyl)sulfamoyl]amino]-2,6-difluoro-benzoyl]-1H-pyrrolo[2,3-b]pyridine]"
